# Non-standard residues stand in square brackets, D forms with d. Residues, ends and D or L forms follow the SMILES beside them. αMeP = C[C@@]1(C(=O)O)CCCN1
# Experiments:
# [1] = tested on: subjects with Rett Syndrome; test: Placebo controlled study in subjects with Rett Syndrome; type: in vivo, human
# Source text: Thirty subjects with Rett Syndrome are recruited, Subjects are female and aged between […] (Mean=12.1 SD=4.4). All subjects have an IQ<60 and mutations of the MECP2 gene. Subjects also show ether spike activity in the EEG or an increase in lower frequency bands of the BEG as detected by Fast Fourier Transform (FFT). Subjects are instructed that concomitant medications are to be stable for at least six weeks prior to study. Subjects receiving medication to treat signs of inattention are tested in the morning and instructed to take their medication in the afternoon. Subjects with QTc interval >451 msec are excluded.
# The study is a randomized double blind placebo controlled parallel study with three doses of either placebo, 10 mg/kg T.I.D oral G-2-MePE for five days, or 30 mg/kg T.I.D. oral G-2-MePE.
# Subjects are tested at baseline using the following instruments: The Rett Syndrome Natural History/Clinical Severity Scale, Aberrant Behavior Checklist Community Edition (ABC), Vinelands, Clinical Global Impression of Severity (CGI-S) and their carers completed the Caregiver Strain Questionnaire (CSQ).
# Subjects are brought into clinic on an inpatient basis to enable initial baseline recordings of EEG, ECG and respiratory rate continuously for 24 hours using polysomnography technology. Hand movements are also recorded using the Q-Sensor™. Derived EEG measures include: spikes per unit time in the EEG, overall power of frequency bands of the EEG, QTc and heart rate variability (HRV), and respiratory irregularities.
# Adverse events are also recorded using standard safety measures and the SMURF elicitation of adverse events
# Statistically, the effect of treatment with G-2-MePE is analysed by conducting a repeated analysis of covariance (ANCOVA) on the effect of treatment on change from baseline scores.
# [2] = tested on: MeCP2 knockout mice; test: Nocturnal activity measurements; type: in vivo, mouse; conditions: 20 mg/kg i.p. daily; after 6 weeks
# Method: For the survival measurements, the nocturnal activity analysis and the immunoblot analysis, G-2-MePE (synthesised Albany Molecular Research Inc. (Albany, N.Y.) and supplied by Neuren Pharmaceuticals Limited) is administered daily via intra-peritoneal injections (20 mg/kg, vehicle=saline, 0.01% BSA). The treatment starts at PI 5 and is maintained throughout the course of the experiments. For intracellular physiology experiments, the mice are injected daily with G-2-MePE (20 mg/kg body weight, vehicle=saline, 0.01% BSA) for 2 weeks, from P15 to P28-P32 when they are used for acute slice preparation. For optical imaging experiments, mice are injected with G-2-MePE (20 mg/kg body weight, vehicle=saline, 0.01% BSA) daily from the day of the lid suture to the day of imaging.
# Spontaneous motor activity is measured by using an infrared beam-activated movement-monitoring chamber (Opto-Varimax-MiniA; Columbus Instruments, Columbus, Ohio). […] Movement is monitored during the normal 12-h dark cycle (7 p.m. to 7 a.m.). […]
# MeCP2−/y mice develop Rett-like symptoms beginning at 4-6 weeks of age when they progressively become lethargic, develop gait ataxia and die between 10 and 12 weeks of age (Chen et al., 2001). Baseline locomotor activity is also recorded in mice after 6 weeks by counting nocturnal infrared beam crossing events within a caged area.
# [3] = tested on: heterozygous Shank3-deficient mice; test: Shank3-deficient mouse model, behavioral analyses; type: in vivo; conditions: 15 or 60 mg/kg oral b.i.d. for 14 days
# Source text: Heterozygous mice generated by crossing wild-type mice with heterozygotes are used in this example to best model the haploinsufficiency of Shank3, responsible for 22q13 deletion syndrome.
# 1 to 3 month old wild type and heterozygous Shank3-deficient mice are divided into 4 treatment groups: placebo treated wild-type, placebo treated Shank3-deficient group and two Shank3-deficient G-2-MePE treated groups. The animals are given placebo (water) or G-2-MePE formulated in water administered orally, b.i.d for 14 days. G-2-MePE is administered at two doses: 15 or 60 mg/kg.
# Behavioral assessments are made at several, time points, and include analysis of social interactions and ultrasonic social communication, in line with the methodology described by Bozdagi et al. Briefly, male-female social interactions in each treatment group are evaluated. […] Videos from the male subjects are subsequently scored by an investigator uninformed of the subject's genotype and treatment group on measures of nose-to-nose sniffing, nose-to-anogenital sniffing and sniffing of other body regions, using Noldus Observer software (Noldus Information Technology, Leesburg, Va., USA). Ultrasonic vocalizations are identified manually by two highly trained investigators blinded to genotype/treatment group information, and summary statistics are calculated using the Avisoft package. […]
# [4] = tested on: MeCP2 deficient mice; test: Survival of MeCP2 deficient mice after oral administration; type: in vivo, mouse; conditions: 20 or 80 mg/kg daily
# Method: Therefore, we administer G-2-MePE orally to MeCP2 deficient mice as described in US 2009/0074865. Briefly, an aqueous solution, a water-in-oil emulsion (micro-emulsion, coarse emulsion or liquid crystal), or a gel composition containing a pharmaceutically effective amount of G-2-MePE (20 or 80 mg/kg per animal) is administered daily. In control MeCP2 deficient animals, we administer saline only, and wild-type animals are used to obtain baseline data similar to the design of studies described in Example 8 above.
# [5] = 30 mg/kg T.I.D. oral, compared to placebo
smiles,measurement,setting,value
"C[C@@]1(C(=O)N[C@@H](CCC(=O)O)C(=O)O)CCCN1C(=O)CN [Example G-2-MePE, Glycyl-L-2-methylprolyl-L-glutamic acid] (H-Gly-[αMeP]-Glu-OH)",power of the delta band of the EEG,[1]; [5],decreases
same,spike activity,[1]; [5],decreases
same,"subscales Nonverbal Communication, Epilepsy/Seizures, Hand use",[1]; [5],significant effects
same,Serious Adverse Events,[1]; 10 or 30 mg/kg T.I.D. oral,No Serious Adverse Events
same,heart rate variability,[1]; 10 or 30 mg/kg T.I.D. oral,No effects
same,increases in QTC,[1]; 10 or 30 mg/kg T.I.D. oral,No instances of increases
same,respiratory rate,[1]; 10 or 30 mg/kg T.I.D. oral,No effects
same,adverse events,"[1]; 10 or 30 mg/kg T.I.D. oral, vs placebo",no more adverse events than are present during treatment with placebo
same,tolerability,[1]; Rett Syndrome population,well tolerated
same,Rett Syndrome Natural History/Clinical Severity Score,[1]; overall,no significant effect overall
same,spikes per unit time in the EEG,[1]; overall treatment effect,significant overall reduction
same,total hand movements per twenty-four hour period (Q-Sensor),[1]; significant for the 30 mg/kg T.I.D. dose compared to placebo,reduces
same,locomotor activity levels (nocturnal infrared beam crossing),[2],elevates
same,cumulative duration of total social sniffing,[3]; vs placebo treated Shank3-deficient group,significant increase
same,number of ultrasonic vocalizations,[3]; vs placebo treated mutant group,increased number
same,survival,[4],increased substantially
